Test results reported in the supplement of paper PMC7021759.
± gives the standard deviation of the averaged measurements.

Test system: SK-N-MM (SKNMM-MYCN, doxycycline-inducible MYCN)
Experiment: area under dose-response curve (CellTiter-Glo viability normalised to plate controls) (AUC (arbitrary units)); higher = more loss of viability; extreme values may be limits of the assay
Summary of the method: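 Compounds were pin-transferred as 10-point 1:3 dilution series (890-fold stock dilution) onto SK-N-MM cells with doxycycline-inducible MYCN, plated at 1250 cells/100 μL in 96-well plates and switched about 24 h after plating to medium with or without doxycycline two days before dosing. Dosing was repeated on day 4, and CellTiter-Glo luminescence was read 3 or 8 days after drugging. Area under the dose-response curve came from log2 signals normalised to the positive and negative controls on each plate.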

[1] = MYCN induction (doxycycline): +doxycycline (MYCN induced), time after drugging: 3 days
[2] = MYCN induction (doxycycline): +doxycycline (MYCN induced), time after drugging: 8 days
[3] = MYCN induction (doxycycline): no doxycycline (MYCN not induced), time after drugging: 3 days
[4] = MYCN induction (doxycycline): no doxycycline (MYCN not induced), time after drugging: 8 days

Row | SMILES | area under dose-response curve [1] | area under dose-response curve [2] | area under dose-response curve [3] | area under dose-response curve [4]
1 | Cc1cc(Nc2ncc(Cl)c(Nc3ccccc3S(=O)(=O)C(C)C)n2)c(OC(C)C)cc1C1CCNCC1 [CERITINIB] | 175 | 168 | 172 | 170
2 | O=C(Nc1ccccc1-c1cn2c(CN3CCNCC3)csc2n1)c1cnc2ccccc2n1 [SRT1720] | 187 | 220 | 0.00298 | 213
3 | Cn1cc(-c2cnn3c(N)c(Br)c([C@@H]4CCCNC4)nc23)cn1 | 67.2 | 122 | 31.4 | 74.9
4 | CCC1=C[C@@H]2CN(C1)Cc1c([nH]c3ccccc13)[C@@](C(=O)OC)(c1cc3c(cc1OC)N(C)[C@H]1[C@@](O)(C(=O)OC)[C@H](OC(C)=O)[C@]4(CC)C=CCN5CC[C@]31[C@@H]54)C2 [VINORELBINE] | 207 | 296 | 99.3 | 144
5 | CN[C@H]1CN(c2ccc3c(=O)c(C(=O)O)cn(-c4nccs4)c3n2)C[C@@H]1OC [VOSAROXIN] | 39.3 | 92.8 | 16.4 | 48.5
6 | Cc1[nH]c2ccccc2c1CCNCc1ccc(/C=C/C(=O)NO)cc1 [PANOBINOSTAT] | 171 ± 12 | 306 ± 5.3 | 114 ± 27 | 287 ± 4.4
7 | Cc1cccc(-c2nn3c(c2-c2ccnc4ccc(C(N)=O)cc24)CCC3)n1 | 0 | 0 | 0 | 0
8 | CCC1(c2ccc(N)cc2)CCC(=O)NC1=O (stereo not given) [AMINOGLUTETHIMIDE] | 0 | 0 | 0 | –
9 | C=C1C[C@@H]2CC[C@@]34C[C@H]5O[C@H]6[C@@H](O3)[C@H]3O[C@H](CC[C@@H]3O[C@H]6[C@H]5O4)CC(=O)C[C@@H]3[C@@H](OC)[C@@H](C[C@H](O)CN)O[C@H]3C[C@H]3O[C@@H](CC[C@@H]1O2)C[C@@H](C)C3=C [ERIBULIN] | 0 | 0.398 | 0 | 52.7
10 | CC(C)(C#N)c1cc(Cn2cncn2)cc(C(C)(C)C#N)c1 [ANASTROZOLE] | 4.86 | 89.8 | 0 | 77.4
11 | CC(=O)O[C@@]12CO[C@@H]1C[C@H](O)[C@@]1(C)C(=O)[C@H](O)C3=C(C)[C@@H](OC(=O)[C@H](O)[C@@H](NC(=O)OC(C)(C)C)c4ccccc4)C[C@@](O)([C@@H](OC(=O)c4ccccc4)[C@H]21)C3(C)C [DOCETAXEL] | 142 | 292 | 107 | 183
12 | CC1(C)CNc2cc(NC(=O)c3cccnc3NCc3ccncc3)ccc21 [MOTESANIB DIPHOSPHATE] | 0 | 0 | 5.62 | 0
13 | Cc1c2oc3c(C)ccc(C(=O)N[C@@H]4C(=O)N[C@H](C(C)C)C(=O)N5CCC[C@H]5C(=O)N(C)CC(=O)N(C)[C@@H](C(C)C)C(=O)O[C@@H]4C)c3nc-2c(C(=O)N[C@@H]2C(=O)N[C@H](C(C)C)C(=O)N3CCC[C@H]3C(=O)N(C)CC(=O)N(C)[C@@H](C(C)C)C(=O)O[C@@H]2C)c(N)c1=O [DACTINOMYCIN] | 140 | 282 | 91.4 | 210
14 | Cc1nc(-c2cn3c(n2)-c2ccc(-c4cnn(C(C)(C)C(N)=O)c4)cc2OCC3)n(C(C)C)n1 [TASELISIB] | 23.1 | 34.9 | 34.6 | 39
